# Test results reported in patent publication US7626043B2, “Antiproliferative activity of the leiodermatolide class of macrolides” (Florida Atlantic University Board of Trustees, priority 2006, dated 2009).
# Key:
# Assay type in all cases: cell-based
# [1] = test system: A549 human lung adenocarcinoma; assay: MTT antiproliferative/cytotoxicity assay, A549; settings: 72-h exposure
# Method: (§1) Leiodermatolide was analyzed as to its effects on the proliferation of a panel of tumor cell lines including both cell lines. The cell lines tested include: A549 human lung adenocarcinoma, NCI-ADR-RES (Formerly MCF-7/ADR) human cancer, PANC-1 human pancreatic cancer, DLD-1 human colorectal carcinoma, and P388 murine leukemia cell lines. P388 cells were obtained from Dr. R. Camalier, National Cancer Institute Bethesda, Md., and A549, PANC-1, DLD-1 and NCI-ADR-RES cells were obtained from American Type Culture Collection, Rockville, Md. […]
# (§2) A volume of 75 μl of warm growth media containing 5 mg/ml MTT is added to each well, cultures returned to the incubator, and left undisturbed for 3 hours. To spectrophotometrically quantitate formation of reduced formazan, plates are centrifuged (900×g, 5 minutes), culture fluids removed by aspiration, and 200 μl of acidified isopropanol (2 ml concentrated HCl/liter isopropanol) added per well. The absorbance of the resulting solutions is measured at 570 nm with a plate reader (BMG labtech NOVOStar). […] The two standard drug controls (indicated above) are included in each assay to monitor the drug sensitivity of each of the cell lines and IC50 values are determined for each drug-cell combination.
# [2] = test system: P388 murine leukemia; assay: MTT antiproliferative/cytotoxicity assay, P388; settings: Mus musculus, 48-hr exposure
# Method: as §1, §2
# [3] = test system: PANC-1 human pancreatic cancer; assay: MTT antiproliferative/cytotoxicity assay, PANC-1; settings: 72-h exposure
# Method: as §1, §2
# [4] = test system: NCI-ADR-RES (Formerly MCF-7/ADR) human cancer; assay: MTT antiproliferative/cytotoxicity assay, NCI-ADR-RES; settings: 72-h exposure, read-out: NCIADR-RES IC50
# Method: as §1, §2
# [5] = test system: PANC-1 human pancreatic carcinoma cells; assay: Cell cycle analysis (propidium iodide flow cytometry), PANC-1; settings: PANC-1, 24 hr
# Method: PANC-1 human pancreatic carcinoma cells were used as cell cycle targets to compare the effects on perturbation of the cell cycle of leiodermatolide and the known mitotic spindle inhibitor Paclitaxel. Cell cycle analyses were performed as follows: PANC-1 […] were incubated in tissue culture media (TCM=Roswell Park Memorial Institute (RPMI) medium 1640 supplemented with 100 U/ml penicillin, […] 1-glutamine, 18 mM HEPES, 0.05 mg/ml gentamicin, 100 μg/ml sodium pyruvate, 2.5 mg/ml glucose and 10% fetal bovine serum) at 37° C. in 5% CO2 in air in the presence or absence of varying concentrations of leiodermatolide or Paclitaxel for 24 hours.
# (§3) Cells were harvested, fixed in ethanol and stained with 0.02 mg/ml of propidium iodide (P.I.) together with 0.1 mg/ml of RNAse A. This procedure permeabilizes cells and allows entry of P.I. to stain DNA (propidium iodide also stains double stranded RNA, so RNAse is included in the preparation to exclude this possibility). Stained preparations were analyzed on a BD Sciences Calibur Flow Cytometer with 488 nm excitation. Fluorescence measurements and resulting DNA histograms were collected from at least 3,000 P.I. stained cells at an emission wavelength of 690 nm. Raw histogram data was further analyzed using a cell cycle analysis program (Multicycle, Phoenix Flow Systems).
# [6] = test system: A549 human lung adenocarcinoma cells; assay: Cell cycle analysis (propidium iodide flow cytometry), A549; settings: A549, 24 hr
# Method: A549 human lung adenocarcinoma cells were used as cell cycle targets to compare the effects on perturbation of the cell cycle of leiodermatolide to the known mitotic spindle inhibitor Paclitaxel. Cell cycle analyses were performed as follows: A549 human lung adenocarcinoma cells were incubated in tissue culture media (TCM=Roswell Park Memorial Institute (RPMI) medium 1640 supplemented with 100 U/ml penicillin, […] 1-glutamine, 18 mM HEPES, 0.05 mg/ml gentamicin and 10% fetal bovine serum) at 37° C. in 5% CO2 in air in the presence or absence of varying concentrations of leiodermatolide or Paclitaxel for 24 hours.
# as §3
# [7] = test system: DLD-1 human colorectal carcinoma; assay: MTT antiproliferative/cytotoxicity assay, DLD-1; settings: 72-h exposure
# Method: as §1, §2
# [8] = 10 nM, listed as leiodermatolide
# [9] = 100 nM, listed as leiodermatolide
compound,measurement,setting,value
CCC1OC(=O)CC(O)(C/C=C/C=C(\C)C2OC(=O)CC/C=C(\C)C(C)C(O)C(C)C(OC(N)=O)/C=C\C=C/C2C)C1C (centres unmarked) [Leiodermatolide],IC50,[1],3.3 nM
same,IC50,[2],3.3 nM
same,IC50,[3],5 nM
same,IC50,[4],233 nM
same,G1 (percentage of cells),[5]; 1 nM,47.88%
same,G2/M (percentage of cells),[5]; 1 nM,28.93%
same,S (percentage of cells),[5]; 1 nM,23.18%
same,G1 (percentage of cells),[5]; 10 nM,12.04%
same,G2/M (percentage of cells),[5]; 10 nM,83.45%
same,S (percentage of cells),[5]; 10 nM,4.51%
same,G1 (percentage of cells),[5]; [8],12%
same,G2/M (percentage of cells),[5]; [8],83%
same,S (percentage of cells),[5]; [8],4%
same,G1 (percentage of cells),[5]; 100 nM,16.55%
same,G2/M (percentage of cells),[5]; 100 nM,77.45%
same,S (percentage of cells),[5]; 100 nM,6.00%
same,G1 (percentage of cells),[5]; [9],16%
same,G2/M (percentage of cells),[5]; [9],77%
same,S (percentage of cells),[5]; [9],6%
same,G1 (percentage of cells),[5]; 1000 nM,29.54%
same,G2/M (percentage of cells),[5]; 1000 nM,63.92%
same,S (percentage of cells),[5]; 1000 nM,6.53%
same,G1 (percentage of cells),[6]; 1 nM,55.75%
same,G2/M (percentage of cells),[6]; 1 nM,13.40%
same,S (percentage of cells),[6]; 1 nM,30.85%
same,G1 (percentage of cells),[6]; 10 nM,2.97%
same,G2/M (percentage of cells),[6]; 10 nM,97.03%
same,S (percentage of cells),[6]; 10 nM,0.00%
same,G1 (percentage of cells),[6]; [8],3%
same,G2/M (percentage of cells),[6]; [8],97%
same,S (percentage of cells),[6]; [8],0%
same,G1 (percentage of cells),[6]; 100 nM,1.70%
same,G2/M (percentage of cells),[6]; 100 nM,98.30%
same,S (percentage of cells),[6]; 100 nM,0.00%
same,G1 (percentage of cells),[6]; [9],2%
same,G2/M (percentage of cells),[6]; [9],98%
same,S (percentage of cells),[6]; [9],0%
same,G1 (percentage of cells),[6]; 1000 nM,4.99%
same,G2/M (percentage of cells),[6]; 1000 nM,95.01%
same,S (percentage of cells),[6]; 1000 nM,0.00%
same,IC50,[7],8.3 nM
"CC(=O)O[C@H]1C(=O)[C@@]2(C)[C@H]([C@H](OC(=O)c3ccccc3)[C@]3(O)C[C@H](OC(=O)[C@H](O)[C@@H](NC(=O)c4ccccc4)c4ccccc4)C(C)=C1C3(C)C)[C@]1(OC(C)=O)CO[C@@H]1C[C@@H]2O [Paclitaxel, reference compound]",G1 (percentage of cells),[5]; 100 nM,10%
same,G2/M (percentage of cells),[5]; 100 nM,88%
same,S (percentage of cells),[5]; 100 nM,2%
same,G1 (percentage of cells),"[5]; 100 nM, listed as paclitaxel",9.76%
same,G2/M (percentage of cells),"[5]; 100 nM, listed as paclitaxel",88.36%
same,S (percentage of cells),"[5]; 100 nM, listed as paclitaxel",1.88%
same,G1 (percentage of cells),[6]; 100 nM,2%
same,G2/M (percentage of cells),[6]; 100 nM,98%
same,S (percentage of cells),[6]; 100 nM,0%
same,G1 (percentage of cells),"[6]; 100 nM, listed as taxol",2.18%
same,G2/M (percentage of cells),"[6]; 100 nM, listed as taxol",97.82%
same,S (percentage of cells),"[6]; 100 nM, listed as taxol",0.00%
